# Test results taken from US20250320206A1, “STAT6 DEGRADERS” (Gilead Sciences, Inc., priority 2024, published 2025).
# Columns and labels:
# [1] = molecular target: T1, STAT6 (Homo sapiens, UniProt P42226); experiment: Stat6 Degrader Assay (HiBiT based, HeLa LgBiT clone 4.14); assay type: cell-based; conditions: HeLa LgBiT clone 4.14 HiBiT-STAT6, 4-24 h incubation; values given for compounds with >80% Emax; geometric mean; read-out: STAT6 degradation DC50
# T1 construct: These cells express endogenous STAT6; host or cells: HeLa LgBiT clone 4.14
# T1 sequence (P42226 1-847): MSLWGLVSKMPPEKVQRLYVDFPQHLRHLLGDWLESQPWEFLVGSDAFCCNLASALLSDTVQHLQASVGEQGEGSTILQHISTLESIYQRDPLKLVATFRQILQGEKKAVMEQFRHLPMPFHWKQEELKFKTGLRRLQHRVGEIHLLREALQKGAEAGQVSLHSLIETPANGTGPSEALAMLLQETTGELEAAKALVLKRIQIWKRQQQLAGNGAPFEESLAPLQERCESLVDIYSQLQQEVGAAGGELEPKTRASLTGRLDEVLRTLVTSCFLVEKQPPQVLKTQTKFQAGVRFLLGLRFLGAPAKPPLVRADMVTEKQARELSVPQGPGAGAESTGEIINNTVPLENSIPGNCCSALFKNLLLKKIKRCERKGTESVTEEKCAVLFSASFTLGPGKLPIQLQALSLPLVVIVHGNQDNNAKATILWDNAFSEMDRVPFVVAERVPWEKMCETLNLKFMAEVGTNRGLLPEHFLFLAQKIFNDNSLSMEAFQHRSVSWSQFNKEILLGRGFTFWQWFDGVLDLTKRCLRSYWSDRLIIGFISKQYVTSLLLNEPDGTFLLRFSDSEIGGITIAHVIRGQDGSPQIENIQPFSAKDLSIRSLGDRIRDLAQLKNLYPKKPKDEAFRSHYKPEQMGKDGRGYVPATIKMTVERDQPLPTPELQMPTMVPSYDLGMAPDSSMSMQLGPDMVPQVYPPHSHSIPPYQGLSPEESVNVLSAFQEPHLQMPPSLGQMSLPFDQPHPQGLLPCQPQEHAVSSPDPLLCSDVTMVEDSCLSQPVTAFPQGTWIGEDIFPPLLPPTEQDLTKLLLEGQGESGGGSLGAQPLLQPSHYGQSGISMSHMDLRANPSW
# Summary of the method: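 Luminescence from HiBiT-STAT6 complementing stably expressed LgBiT in HeLa clone 4.14 reports remaining STAT6 protein. Cells (5000/well) exposed to compound for 4-24 h at 37° C; read 0.5 h after Nano-Glo addition. 100% degradation window set with 50 μM terfenadine; percent degradation plotted against concentration.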
# [2] = test system: Eotaxin-3 release in human whole blood stimulated with IL-4; experiment: Human Whole Blood Eotaxin-3 Assay (IL-4 stimulated eotaxin-3 release); assay type: cell-based; conditions: IL-4 stimulation, 48 h, values given for compounds with >80% Emax, geometric mean
# Summary of the method: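 Eotaxin-3 (CCL26) release measured by MSD kit in plasma supernatant after 48 h IL-4 stimulation ([…]) of human whole blood. Compounds added in triplicate 4-fold dilutions 2 h before stimulation; 0.5% DMSO final, 37° C, 5% CO2.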
SMILES,DC50 [1] [nM],EC50 [2] [nM]
"CNc1ccn(-c2ccnc3c2cc(CN2CC=C(c4c(C)cc(C(=O)N5CCC(CN6CCN(Cc7ccc8c(c7)C(C)(C)C(=O)N8C7CCC(=O)NC7=O)C[C@@H]6C)CC5)cc4F)CC2)n3C)c(=O)c1 (stereo partly drawn) [Example 3u178, 3-(5-(((S)-4-((1-(3-fluoro-5-methyl-4-(1-((1-methyl-4-(4-(methylamino)-2-oxopyridin-1 (2H)-yl)-1H-pyrrolo[2,3-b]pyridin-2-yl)methyl)-1,2,3,6-tetrahydropyridin-4-yl)benzoyl)piperidin-4-yl)methyl)-3-methylpiperazin-1-yl)methyl)-3,3-dimethyl-2-oxoindolin-1-yl)piperidine-2,6-dione]",5.6,7.7
"C[C@H]1CN(Cc2ccc3c(c2)n(C2CC2)c(=O)n3C2CCC(=O)NC2=O)CCN1CC1CCN(C(=O)c2cc(F)c(C3CCN(Cc4cc5c(-n6ccc7c(c6=O)CCN7)ccnc5n4C)CC3)c(F)c2)CC1 (stereo partly drawn) [Example 3u106, 3-(3-cyclopropyl-5-(((S)-4-((1-(3,5-difluoro-4-(1-((1-methyl-4-(4-oxo-1,2,3,4-tetrahydro-5H-pyrrolo[3,2-c]pyridin-5-yl)-1H-pyrrolo[2,3-b]pyridin-2-yl)methyl)piperidin-4-yl)benzoyl)piperidin-4-yl)methyl)-3-methylpiperazin-1-yl)methyl)-2-oxo-2,3-dihydro-1H-benzo[d]imidazol-1-yl)piperidine-2,6-dione]",2.3,0.8
"CNc1ccn(-c2ccnc3c2cc(CN2CC=C(c4c(C)cc(C(=O)N5CCC(CN6CCN(Cc7ccc8c(c7)C(C)(C)C(=O)N8[C@@H]7CCC(=O)NC7=O)C[C@@H]6C)CC5)cc4F)CC2)n3C)c(=O)c1 (single isomer, unassigned) [Example 3u180]",8.8,17.3
"CNc1cc(=O)n(-c2ccnc3c2cc(CN2CCC(c4c(F)cc(C(=O)N5CCC(CN6CCN(Cc7cc8c(cc7F)N(C7CCC(=O)NC7=O)C(=O)C87CC7)CC6)CC5)cc4F)CC2)n3C)cc1F (stereo not shown) [Example 3u93, 3-(5′-((4-((1-(3,5-difluoro-4-(1-((4-(5-fluoro-4-(methylamino)-2-oxopyridin-1 (2H)-yl)-1-methyl-1H-pyrrolo[2,3-b]pyridin-2-yl)methyl)piperidin-4-yl)benzoyl)piperidin-4-yl)methyl)piperazin-1-yl)methyl)-6′-fluoro-2′-oxospiro[cyclopropane-1,3′-indolin]-1′-yl)piperidine-2,6-dione]",26.9,16.6
"CNc1cc(=O)n(-c2ccnc3c2cc([C@H](C)N2CC=C(c4c(C)cc(C(=O)N5CCC(CN6CCN(Cc7ccc8c(c7)C(C)(C)C(=O)N8C7CCC(=O)NC7=O)C[C@@H]6C)CC5)cc4F)CC2)n3C)cc1F (stereo partly drawn) [Example 3u172, 3-(5-(((S)-4-((1-(3-fluoro-4-(1-((S)-1-(4-(5-fluoro-4-(methylamino)-2-oxopyridin-1 (2H)-yl)-1-methyl-1H-pyrrolo[2,3-b]pyridin-2-yl)ethyl)-1,2,3,6-tetrahydropyridin-4-yl)-5-methylbenzoyl)piperidin-4-yl)methyl)-3-methylpiperazin-1-yl)methyl)-3,3-dimethyl-2-oxoindolin-1-yl)piperidine-2,6-dione]",2.9,13.2
"CNc1cc(=O)n(-c2ccnc3c2cc([C@H](C)N2CC=C(c4c(C)cc(C(=O)N5CCC(CN6CCN(c7ccc8c(c7)n(C)c(=O)n8[C@@H]7CCC(=O)NC7=O)CC6)CC5)cc4F)CC2)n3C)cc1F (single isomer, unassigned) [Example 3u297]",2.2,3.2
"CNc1cc(=O)n(-c2ccnc3c2cc(CN2CCC(c4c(F)cc(C(=O)N5CCC(CN6CCN(Cc7ccc8c(c7)C(C)(C)C(=O)N8[C@@H]7CCC(=O)NC7=O)CC6)CC5)cc4F)CC2)n3C)cc1F (single isomer, unassigned) [Example 3u59]",11.4,25.8

# These reach a lower DC50 [1]. Values come first.
DC50 [1] [nM],EC50 [2] [nM],SMILES
0.3,1.6,"CNc1ccn(-c2ccnc3c2cc(CN2CC=C(c4c(C)cc(C(=O)N(C)c5ccc(C6CCN(Cc7ccc8c(c7)C(C)(C)C(=O)N8[C@H]7CCC(=O)NC7=O)CC6)cc5)cc4F)CC2)n3C)c(=O)c1 (single isomer, unassigned) [Example 3u229]"
1.5,2.4,"C[C@H]1CN(Cc2ccc3c(c2)C2(CC2)C(=O)N3C2CCC(=O)NC2=O)CCN1CC1CCN(C(=O)c2cc(F)c(C3CCN(Cc4cc5c(-n6ccc7c(c6=O)CCN7)ccnc5n4C)CC3)c(F)c2)CC1 (stereo partly drawn) [Example 3u69, 3-(5′-(((S)-4-((1-(3,5-difluoro-4-(1-((1-methyl-4-(4-oxo-1,2,3,4-tetrahydro-5H-pyrrolo[3,2-c]pyridin-5-yl)-1H-pyrrolo[2,3-b]pyridin-2-yl)methyl)piperidin-4-yl)benzoyl)piperidin-4-yl)methyl)-3-methylpiperazin-1-yl)methyl)-2′-oxospiro[cyclopropane-1,3′-indolin]-1′-yl)piperidine-2,6-dione]"
1.3,1.8,"CNc1cc(=O)n(-c2ccnc3c2cc([C@H](C)N2CC=C(c4c(F)cc(C(=O)N5CCC(CN6CCN(Cc7ccc8c(c7)n(C7CC7)c(=O)n8[C@@H]7CCC(=O)NC7=O)C[C@@H]6C)CC5)cc4F)CC2)n3C)cc1F (single isomer, unassigned) [Example 3u130]"
1.2,2.7,"CNc1ccn(-c2ccnc3c2cc([C@H](C)N2CCC(c4c(C)cc(C(=O)N5CCC(CN6CCN(Cc7ccc8c(c7)n(C7CC7)c(=O)n8C7CCC(=O)NC7=O)C[C@@H]6C)CC5)cc4F)CC2)n3C)c(=O)c1 (stereo partly drawn) [Example 3u197, 3-(3-cyclopropyl-5-(((S)-4-((1-(3-fluoro-5-methyl-4-(1-((S)-1-(1-methyl-4-(4-(methyl-amino)-2-oxopyridin-1 (2H)-yl)-1H-pyrrolo[2,3-b]pyridin-2-yl)ethyl)piperidin-4-yl)benzoyl)piperidin-4-yl)methyl)-3-methylpiperazin-1-yl)methyl)-2-oxo-2,3-dihydro-1H-benzo[d]imidazol-1-yl)piperidine-2,6-dione]"
1.1,1.3,"CNc1cc(=O)n(-c2ccnc3c2cc([C@H](C)N2CC=C(c4c(C)cc(C(=O)N(C)c5ccc(N6CCC(O)(Cc7ccc8c(c7)C7(CC7)C(=O)N8C7CCC(=O)NC7=O)CC6)nc5)cc4F)CC2)n3C)cc1F (stereo partly drawn) [Example 3u240, N-(6-(4-((1′-(2,6-dioxopiperidin-3-yl)-2′-oxospiro[cyclopropane-1,3′-indolin]-5′-yl)methyl)-4-hydroxypiperidin-1-yl)pyridin-3-yl)-3-fluoro-4-(1-((S)-1-(4-(5-fluoro-4-(methylamino)-2-oxopyridin-1 (2H)-yl)-1-methyl-1H-pyrrolo[2,3-b]pyridin-2-yl)ethyl)-1,2,3,6-tetrahydropyridin-4-yl)-N,5-dimethylbenzamide]"
0.1,1.2,"CNc1cc(=O)n(-c2ccnc3c2cc([C@H](C)N2CC=C(c4c(C)cc(C(=O)N(C)c5ccc(N6CCN(Cc7ccc8c(c7)C7(CC7)C(=O)N8C7CCC(=O)NC7=O)CC6)nc5)cc4F)CC2)n3C)cc1F (stereo partly drawn) [Example 3u239, N-(6-(4-((1′-(2,6-dioxopiperidin-3-yl)-2′-oxospiro[cyclopropane-1,3′-indolin]-5′-yl)-methyl)piperazin-1-yl)pyridin-3-yl)-3-fluoro-4-(1-((S)-1-(4-(5-fluoro-4-(methylamino)-2-oxopyridin-1 (2H)-yl)-1-methyl-1H-pyrrolo[2,3-b]pyridin-2-yl)ethyl)-1,2,3,6-tetrahydropyridin-4-yl)-N,5-dimethyl-benzamide]"
0.6,1.4,"CNc1cc(=O)n(-c2ccnc3c2cc([C@H](C)N2CC=C(c4c(C)cc(C(=O)N5CCC(CN6CCN(Cc7ccc8c(c7)n(C)c(=O)n8[C@H]7CCC(=O)NC7=O)C[C@@H]6C)CC5)cc4F)CC2)n3C)cc1F (single isomer, unassigned) [Example 3u91]"
